“And” between values parts separate entries of the source, which are not always exact repeats. Equal entries are not always repeated.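 The compound was tested at five concentrations on cells cultured in 96-well plates, with a 48-hour exposure period. The concentration for 50% growth inhibition is given as GI50. Definition used: TGI = concentration required for complete inhibition of growth.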
Experiments:
Assay in all cases: NCI tumour cell line growth inhibition, 48 h
A498 renal = system: A498 renal
ACHN renal = system: ACHN renal
COLO 205 colon = system: COLO 205 colon
MOLT-4 leukemia = system: MOLT-4 leukemia
OVCAR-5 ovarian = system: OVCAR-5 ovarian
SK-MEL-2 melanoma = system: SK-MEL-2 melanoma
SK-OV-3 ovarian = system: SK-OV-3 ovarian
SN12C renal = system: SN12C renal
SNB-19 CNS = system: SNB-19 CNS
U251 CNS = system: U251 CNS

Row | SMILES | GI50 (A498 renal) [µM] | TGI (A498 renal) [µM] | GI50 (ACHN renal) [µM] | TGI (ACHN renal) | GI50 (COLO 205 colon) [µM] | TGI (COLO 205 colon) | GI50 (MOLT-4 leukemia) [µM] | TGI (MOLT-4 leukemia) | GI50 (OVCAR-5 ovarian) | TGI (OVCAR-5 ovarian) [µM] | GI50 (SK-MEL-2 melanoma) [µM] | TGI (SK-MEL-2 melanoma) | GI50 (SK-OV-3 ovarian) [µM] | TGI (SK-OV-3 ovarian) [µM] | GI50 (SN12C renal) [µM] | TGI (SN12C renal) | GI50 (SNB-19 CNS) [µM] | TGI (SNB-19 CNS) [µM] | GI50 (U251 CNS) [µM] | TGI (U251 CNS)
1 | COc1cc2c3c(n(CCCn4cccn4)c(=O)c2cc1OC)-c1cc2c(cc1C3=O)OCO2 | 2.48 | 14.2 | 0.396 | 5.61 µM | 5.25 | > 100 µM | 0.351 | > 35.9 µM | 14 µM | 64.4 | 59.9 | > 100 µM | 4.13 | > 100 | 0.463 | 3.08 µM | 1.08 | > 100 | 0.724 | > 40.4 µM
2 | CCCC(=O)C(CC)/C(CCC(=O)N(Cc1ccccc1)Cc1ccccc1)=N/NC(=O)C[N+](C)(C)C (stereo not given) |  | > 100 |  | > 100 µM |  | > 100 µM |  | > 100 µM |  | > 100 |  | > 100 µM |  | > 100 |  | > 100 µM |  | > 100 |  | > 100 µM
3 | CCC1N2CCCCC2[C@@H]2c3[nH]c4ccccc4c3CCN12 (stereo not given in full) |  | > 100 |  | > 100 µM |  | > 100 µM |  | > 100 µM |  | > 100 |  | > 100 µM |  | > 100 |  | > 100 µM |  | > 100 |  | > 100 µM
4 | NCC(=O)OCN1C(=O)C2C3C=CC(C2C1=O)C1C2C(=O)N(COC(=O)CN)C(=O)C2C31 (stereo not given) |  | > 100 |  | 67.6 µM and 62.1 µM |  | 36.4 µM and 32.2 µM |  | 69.8 µM and 42.2 µM | 42.1 µM and 90 µM | > 100 |  | 38.6 µM and 41.2 µM |  | > 100 |  | 48.4 µM and 50.7 µM |  | > 100 |  | 45 µM and 38.7 µM
5 | COc1ccccc1NC(=O)N/C(N)=N/c1nc2ccccc2s1 | 0.24 | > 100 | 0.327 | > 100 µM | 0.254 | > 100 µM | 0.162 | > 100 µM | 0.42 µM | > 100 | 0.446 | > 100 µM | 0.476 | > 100 | 0.307 | > 100 µM | 0.0607 | > 100 | 0.0655 | > 100 µM
6 | COc1cc(C(C)c2cc3c(cc2OCCOCCOc2cc4c(cc2C(C)c2cc(OC)c(OC)c(OC)c2)OCO4)OCO3)cc(OC)c1OC (stereo not given) | > 100 | > 100 | > 100 | > 100 µM | > 100 | > 100 µM | > 100 | > 100 µM | > 100 µM | > 100 | > 100 | > 100 µM | > 100 | > 100 | > 100 | > 100 µM | > 100 | > 100 | > 100 | > 100 µM
7 | N#C/C(=C/c1cccs1)c1cccs1 | > 100 | > 100 | > 100 | > 100 µM | > 100 | > 100 µM | > 100 | > 100 µM | > 100 µM | > 100 | > 100 | > 100 µM | > 100 | > 100 | > 100 | > 100 µM | > 100 | > 100 | > 100 | > 100 µM
8 | CN([N-]C(=O)CC(=O)[N-]N(C)C(=S)c1ccccc1)C(=S)c1ccccc1.[Cu+2] | 0.0346 | 0.146 | 0.0825 | 0.22 µM | < 0.01 | 0.0256 µM | < 0.0108 | 0.22 µM | 0.0445 µM | 0.175 | 0.113 | 0.263 µM | 0.0263 | 0.114 | 0.124 | 0.253 µM | 0.129 | 0.261 | 0.0331 | 0.125 µM
9 | C=CCCC12CCCC(=O)C1Sc1ccc3ccccc3c12 (stereo not given) |  | 26.1 |  | 92.3 µM |  | 29.1 µM |  | 39.6 µM |  | 93.5 |  | 32.8 µM |  | 66.4 |  | 54.4 µM |  | 96 |  | 33.6 µM
10 | Cc1cc(C)c(S(=O)(=O)Oc2ccccc2[N+](=O)[O-])c(C)c1 | 1.21 | 12.5 | 5.56 | > 100 µM | 2.9 | 12.9 µM | 1.39 | > 100 µM | 5.67 µM | > 100 | 3.41 | > 100 µM | 2.81 | > 29.2 | 14.7 | > 100 µM | 4 | > 100 | 2.36 | > 100 µM
11 | C=C(C)[C@@H]1CC[C@]2(C)[C@H](CC=C3[C@@H]4CC(C)(C)CC[C@]4(C(=O)OC)CC[C@]32C)[C@@]1(C)CC/C(N)=N/O | 2.05 | 4.48 | 2.05 | 5.81 µM | 2.46 | 6.54 µM | 2.09 | 5.25 µM | 1.72 µM | 3.73 | 1.78 | 3.95 µM | 4.62 | 27.2 | 1.66 | 3.2 µM | 2.21 | 5.73 | 1.81 | 3.69 µM
12 | CCCCCCCCCCSS(=O)(=O)c1ccc(C)cc1 |  | 35 |  | 31 µM |  | 33.6 µM |  | 6.73 µM |  | 30.6 |  | 12.4 µM |  | 42.9 |  | 25.1 µM |  | 27.6 |  | 14.3 µM
13 | CC(=O)[CH-]C(=O)c1ccccc1.CC(=O)[CH-]C(=O)c1ccccc1.CC(C)CCCC(C)[C@H]1CCC2[C@@H]3CCC4C[C@@H]([O-])CC[C@]4(C)C3CC[C@@]21C.CC(C)CCCC(C)[C@H]1CCC2[C@@H]3CCC4C[C@@H]([O-])CC[C@]4(C)C3CC[C@@]21C.Cl.[Ti+4] (stereo not given in full) | > 25 | > 25 | > 25 | > 25 µM | > 25 | > 25 µM | > 25 | > 25 µM | > 25 µM | > 25 | > 25 | > 25 µM | > 25 | > 25 | > 25 | > 25 µM | > 25 | > 25 | > 25 | > 25 µM
14 | COc1cccc2c1C(=O)c1c(O)c3c(c(O)c1C2=O)C[C@@](O)(C(=O)COC(=O)c1cccnc1)C[C@@H]3OC1CC(N)C(O)C(C)O1 (stereo not given in full) | 0.113 | 0.334 | 0.117 |  | 0.168 | 1.01 µM | 0.0369 | 0.684 µM | 0.335 µM | 4.53 | 0.232 | 0.529 µM | 0.382 | 26 | 0.083 | 3.68 µM | 0.0691 | 2.65 | 0.0665 | 0.592 µM
15 | O=C(Oc1ccccc1Cl)c1cccnc1Nc1ccnc(C(F)(F)F)c1 | 17.3 | 37.2 | 22 | 50.2 µM | 26.6 | 84.5 µM | 2.52 | 8.97 µM | 39.6 µM | > 100 | 6.79 | 21.8 µM | 36.9 | > 100 | 4.03 | 18 µM | 23.4 | 70.1 | 17.6 | 32.9 µM
16 | CC(C)[C@H](COC(C)(C)C)N=CN1CSc2ccccc21 |  | > 100 |  | 71.4 µM |  | 39.4 µM |  | > 100 µM |  | > 100 |  | > 100 µM |  | 78.3 |  | 84.1 µM |  | > 100 |  | > 100 µM
17 | C[C@]1(O)CC(=O)[C@]2(O)C3=C(C=C[C@]2(O)C1)C(=O)c1c(O)cccc1C3=O | 13 | 25.9 | 0.5 | 1.73 µM | 0.229 | 0.584 µM | 1.12 | 3.98 µM | 6.51 µM | 19.8 | 2.47 | 5.56 µM | 17.5 | 42 | 1.72 | 3.18 µM | 13.6 | 26.5 | 6.02 | 21.5 µM
18 | COc1cc(/C=C\c2cc(/C=C\c3ccc(O)c(OC)c3)n(C(=O)Nc3ccc(C(F)(F)F)cc3)n2)ccc1O | 5.81 | 20.6 | 2.48 | 7.08 µM | 2.05 | 4.5 µM | 2.73 | 20 µM | 2.16 µM | 4.97 | 3.15 | 17.3 µM | 4.02 | 66.7 | 2.73 | 9.9 µM | 3.16 | 11.2 | 2.49 | 6.86 µM
19 | COC(=O)/C=C\C1C(C(=O)OC)C2(C(=O)OC)CCC1(C(=O)OC)N2 (stereo not given) |  | 32.9 |  | 22.7 µM |  | 13.5 µM |  | 14.7 µM |  | 34.5 |  | 30 µM |  | 31.9 |  | 29.9 µM |  | 23.8 |  | 32.7 µM
20 | COc1cc(C)c(N(C)C(=O)CN(C)C)cc1Nc1nc(Nc2cccc(F)c2C(N)=O)c2cc[nH]c2n1 | > 13.9 | > 25 | > 25 | > 25 µM | 5.63 | > 25 µM | > 21.9 | > 25 µM | 1.41 µM | > 25 | > 25 | > 25 µM | > 25 | > 25 | > 25 | > 25 µM | > 25 | > 25 | > 25 | > 25 µM
